Source: patent US20070270418A1, “Inhibitors of P38 and Methods of Using the Same” (priority 2003, published 2007)

The compounds below were run on TNFα release from THP-1 cells (assay: TNFα release from LPS-stimulated THP-1 cells). Conditions: Homo sapiens, THP-1, 18 h, LPS 10 μg/ml, 18 hours; read-out: TNFα (THP-1) IC50.
Format: cell-based
Method in brief: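 THP-1 cells (10^6 cells/ml on resuspension) preincubated with compound 30 min at 37°C, 5% CO2, final DMSO ≤0.5%, then stimulated with 10 μg/ml LPS for 18 h (TNFα). Supernatants collected for TNFα analysis.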
Work on CC(CO)(CO)Nc1nccc(-c2c(-c3ccc(F)cc3)nc3occn23)n1 [LXXXII] yielded an IC50 of 50.5 nM. NCCNc1nccc(-c2c(-c3ccc(F)cc3)nc3occn23)n1 [LXXXIX] was tested, and the IC50 was 599 nM. Work on CS(=O)(=O)c1ccc(CNc2nccc(-c3c(-c4ccc(F)cc4)nc4occn34)n2)cc1 [LXXXI] yielded an IC50 of 1230 nM. With Fc1ccc(-c2nc3occn3c2-c2ccnc(NCC3CCCNC3)n2)cc1 (stereo not shown) [LXXXVIII] the IC50 was 87 nM. OCC(CO)(CO)Nc1nccc(-c2c(-c3ccc(F)cc3)nc3occn23)n1 [LXXXVI] gave an IC50 of 150 nM. In the case of Fc1ccc(-c2nc3occn3c2-c2ccnc(NCc3cccnc3)n2)cc1 [LXXXV], the IC50 is reported as 39.3 nM. Oc1ccc(C(O)CNc2nccc(-c3c(-c4ccc(F)cc4)nc4occn34)n2)cc1 (stereo not shown) [LXXX] was tested, and the IC50 was 88.4 nM. CCOC(=O)N1CCC(Nc2nccc(-c3c(-c4ccc(F)cc4)nc4occn34)n2)CC1 [LXX] was tested, and the IC50 was 12.2 nM. CCCCC(CO)Nc1nccc(-c2c(-c3ccc(F)cc3)nc3occn23)n1 (stereo not shown) [LX] gave an IC50 of 69.7 nM. Work on CC(C)C[C@H](CO)Nc1nccc(-c2c(-c3ccc(F)cc3)nc3occn23)n1 [L] yielded an IC50 of 125 nM. OCCN(CCO)c1nccc(-c2c(-c3ccc(F)cc3)nc3occn23)n1 [XCIII] showed an IC50 of 457 nM. With Fc1ccc(CNc2nccc(-c3c(-c4ccc(F)cc4)nc4occn34)n2)cc1 [XCIV] the IC50 was 394 nM. In the case of Fc1ccc(-c2nc3occn3c2-c2ccnc(N3CCOCC3)n2)cc1 [XCIX], the IC50 is reported as 854 nM. Work on NCCCNc1nccc(-c2c(-c3ccc(F)cc3)nc3occn23)n1 [XCI] yielded an IC50 of 188 nM. OC1CCN(c2nccc(-c3c(-c4ccc(F)cc4)nc4occn34)n2)CC1 [XCVIII] gave an IC50 of 951 nM. Work on COCCCNc1nccc(-c2c(-c3ccc(F)cc3)nc3occn23)n1 [XCVII] yielded an IC50 of 12.1 nM. CCNc1nccc(-c2c(-c3ccc(F)cc3)nc3occn23)n1 [XCV] showed an IC50 of 18 nM. CC(C)[C@@H](CO)Nc1nccc(-c2c(-c3ccc(F)cc3)nc3occn23)n1 [XII] was tested, and the IC50 was 11.8 nM. OCCNc1nccc(-c2c(-c3ccc(F)cc3)nc3occn23)n1 [XIV] was tested, and the IC50 was 338 nM. For N#CCCNc1nccc(-c2c(-c3ccc(F)cc3)nc3occn23)n1 [XIX], the IC50 was 1140 nM. CCOCCCNc1nccc(-c2c(-c3ccc(F)cc3)nc3occn23)n1 [XLIII] showed an IC50 of 13.5 nM. With Fc1ccc(-c2nc3occn3c2-c2ccnc(NC[C@@H]3CCCO3)n2)cc1 [XLII] the IC50 was 11.2 nM. In the case of CCSCCNc1nccc(-c2c(-c3ccc(F)cc3)nc3occn23)n1 [XLIV], the IC50 is reported as 34.5 nM. Fc1ccc(-c2nc3occn3c2-c2ccnc(NCc3cccs3)n2)cc1 [XLIX] gave an IC50 of 20 nM. For Fc1ccc(-c2nc3occn3c2-c2ccnc(NCc3ccccn3)n2)cc1 [XLVIII], the IC50 was 96.8 nM. C[C@@H](CO)CCNc1nccc(-c2c(-c3ccc(F)cc3)nc3occn23)n1 [XLVII] gave an IC50 of 13.7 nM. Work on OCCCCCNc1nccc(-c2c(-c3ccc(F)cc3)nc3occn23)n1 [XLVI] yielded an IC50 of 17.2 nM. Compound Fc1ccc(-c2nc3occn3c2-c2ccnc(NC[C@H]3CCCO3)n2)cc1 [XLV] has an IC50 of 11.2 nM. OCCOCCNc1nccc(-c2c(-c3ccc(F)cc3)nc3occn23)n1 [XL] showed an IC50 of 93 nM. With Fc1ccc(-c2nc3occn3c2-c2ccnc(NC3CC3)n2)cc1 [XVIII] the IC50 was 11.2 nM. CCC(O)CNc1nccc(-c2c(-c3ccc(F)cc3)nc3occn23)n1 (stereo not shown) [XVII] was tested, and the IC50 was 15.9 nM. CC(O)CNc1nccc(-c2c(-c3ccc(F)cc3)nc3occn23)n1 (stereo not shown) [XV] gave an IC50 of 18.8 nM.

Same assay, conditions: LPS 10 μg/ml, 18 hours; read-out: TNFα (THP-1) IC50
With OC(CNc1nccc(-c2c(-c3ccc(F)cc3)nc3occn23)n1)c1ccccc1 (stereo not shown) [LII] the IC50 was 60.9 nM. Compound CC(CO)Nc1nccc(-c2c(-c3ccc(F)cc3)nc3occn23)n1 (stereo not shown) [XLI] has an IC50 of 49.2 nM. For CC(O)CNc1nccc(-c2c(-c3ccc(F)cc3)nc3occn23)n1 (stereo not shown) [XVI], the IC50 was 19.3 nM.

Each compound was assayed against T1, p38α (Homo sapiens, UniProt Q16539) (assay: p38 MAP Kinase assay, ATF2 phosphorylation (ELISA)). Conditions: 40 μM ATP.
T1 construct: p38 MAP Kinases are recombinant human full-length proteins with an amino-terminal GST fusion; GST (N); purchased Upstate (Charlottesville, Va.); host or cells: E. coli
T1 sequence (Q16539 whole entry, the tested form may be a part): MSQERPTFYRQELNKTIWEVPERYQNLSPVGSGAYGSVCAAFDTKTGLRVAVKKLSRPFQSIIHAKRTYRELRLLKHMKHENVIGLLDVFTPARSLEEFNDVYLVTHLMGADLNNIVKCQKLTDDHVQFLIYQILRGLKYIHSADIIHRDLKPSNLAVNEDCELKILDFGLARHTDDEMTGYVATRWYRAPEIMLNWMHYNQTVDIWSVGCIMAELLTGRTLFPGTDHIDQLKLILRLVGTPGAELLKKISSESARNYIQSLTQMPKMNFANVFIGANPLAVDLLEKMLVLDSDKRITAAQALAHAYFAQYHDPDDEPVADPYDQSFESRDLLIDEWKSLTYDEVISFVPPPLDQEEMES
Format: biochemical
Method in brief: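 Recombinant full-length GST-tagged human p38α (6 ng) pre-incubated 15 min at room temperature with compound, then reacted 30 min at 37° C with 40 μM ATP and 1.25 μM GST-ATF2 (aa 19-96) in HEPES pH 7.5/MgCl2 buffer. EDTA stop; ATF2 Thr69 phosphorylation measured by anti-phospho-ATF2 ELISA at 450 nm.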
OC(CNc1nccc(-c2c(-c3ccc(F)cc3)nc3occn23)n1)c1ccccc1 (stereo not shown) [LII] gave an IC50 of 54.5 nM. In the case of CC(CO)(CO)Nc1nccc(-c2c(-c3ccc(F)cc3)nc3occn23)n1 [LXXXII], the IC50 is reported as 184 nM. NCCNc1nccc(-c2c(-c3ccc(F)cc3)nc3occn23)n1 [LXXXIX] showed an IC50 of 253 nM. Compound CS(=O)(=O)c1ccc(CNc2nccc(-c3c(-c4ccc(F)cc4)nc4occn34)n2)cc1 [LXXXI] has an IC50 of 1230 nM. Compound Fc1ccc(-c2nc3occn3c2-c2ccnc(NCC3CCCNC3)n2)cc1 (stereo not shown) [LXXXVIII] has an IC50 of 39.9 nM. Compound OCC(CO)(CO)Nc1nccc(-c2c(-c3ccc(F)cc3)nc3occn23)n1 [LXXXVI] has an IC50 of 227 nM. In the case of Fc1ccc(-c2nc3occn3c2-c2ccnc(NCc3cccnc3)n2)cc1 [LXXXV], the IC50 is reported as 66.3 nM. Oc1ccc(C(O)CNc2nccc(-c3c(-c4ccc(F)cc4)nc4occn34)n2)cc1 (stereo not shown) [LXXX] showed an IC50 of 82.5 nM. CCOC(=O)N1CCC(Nc2nccc(-c3c(-c4ccc(F)cc4)nc4occn34)n2)CC1 [LXX] gave an IC50 of 3.33 nM. Work on CCCCC(CO)Nc1nccc(-c2c(-c3ccc(F)cc3)nc3occn23)n1 (stereo not shown) [LX] yielded an IC50 of 20.5 nM. With CC(C)C[C@H](CO)Nc1nccc(-c2c(-c3ccc(F)cc3)nc3occn23)n1 [L] the IC50 was 86.6 nM. Work on OCCN(CCO)c1nccc(-c2c(-c3ccc(F)cc3)nc3occn23)n1 [XCIII] yielded an IC50 of 120 nM. Work on Fc1ccc(CNc2nccc(-c3c(-c4ccc(F)cc4)nc4occn34)n2)cc1 [XCIV] yielded an IC50 of 90.9 nM. Work on Fc1ccc(-c2nc3occn3c2-c2ccnc(N3CCOCC3)n2)cc1 [XCIX] yielded an IC50 of 71.1 nM. In the case of NCCCNc1nccc(-c2c(-c3ccc(F)cc3)nc3occn23)n1 [XCI], the IC50 is reported as 49.9 nM. OC1CCN(c2nccc(-c3c(-c4ccc(F)cc4)nc4occn34)n2)CC1 [XCVIII] was tested, and the IC50 was 134 nM. Work on COCCCNc1nccc(-c2c(-c3ccc(F)cc3)nc3occn23)n1 [XCVII] yielded an IC50 of 1.41 nM. CCNc1nccc(-c2c(-c3ccc(F)cc3)nc3occn23)n1 [XCV] was tested, and the IC50 was 3.42 nM. Compound CC(C)[C@@H](CO)Nc1nccc(-c2c(-c3ccc(F)cc3)nc3occn23)n1 [XII] has an IC50 of 16.7 nM. OCCNc1nccc(-c2c(-c3ccc(F)cc3)nc3occn23)n1 [XIV] gave an IC50 of 41.6 nM. N#CCCNc1nccc(-c2c(-c3ccc(F)cc3)nc3occn23)n1 [XIX] was tested, and the IC50 was 100 nM. CCOCCCNc1nccc(-c2c(-c3ccc(F)cc3)nc3occn23)n1 [XLIII] showed an IC50 of 1.56 nM. Fc1ccc(-c2nc3occn3c2-c2ccnc(NC[C@@H]3CCCO3)n2)cc1 [XLII] gave an IC50 of 80.8 nM. With CCSCCNc1nccc(-c2c(-c3ccc(F)cc3)nc3occn23)n1 [XLIV] the IC50 was 10.5 nM. Fc1ccc(-c2nc3occn3c2-c2ccnc(NCc3cccs3)n2)cc1 [XLIX] was tested, and the IC50 was 5.87 nM. CC(CO)Nc1nccc(-c2c(-c3ccc(F)cc3)nc3occn23)n1 (stereo not shown) [XLI] was tested, and the IC50 was 1.75 nM. Work on Fc1ccc(-c2nc3occn3c2-c2ccnc(NCc3ccccn3)n2)cc1 [XLVIII] yielded an IC50 of 74 nM. C[C@@H](CO)CCNc1nccc(-c2c(-c3ccc(F)cc3)nc3occn23)n1 [XLVII] gave an IC50 of 31.4 nM. In the case of OCCCCCNc1nccc(-c2c(-c3ccc(F)cc3)nc3occn23)n1 [XLVI], the IC50 is reported as 23.1 nM. Work on Fc1ccc(-c2nc3occn3c2-c2ccnc(NC[C@H]3CCCO3)n2)cc1 [XLV] yielded an IC50 of 11.7 nM. In the case of OCCOCCNc1nccc(-c2c(-c3ccc(F)cc3)nc3occn23)n1 [XL], the IC50 is reported as 79 nM. Work on Fc1ccc(-c2nc3occn3c2-c2ccnc(NC3CC3)n2)cc1 [XVIII] yielded an IC50 of 0.44 nM. With CCC(O)CNc1nccc(-c2c(-c3ccc(F)cc3)nc3occn23)n1 (stereo not shown) [XVII] the IC50 was 15.7 nM. CC(O)CNc1nccc(-c2c(-c3ccc(F)cc3)nc3occn23)n1 (stereo not shown) [XVI] gave an IC50 of 37.1 nM. With CC(O)CNc1nccc(-c2c(-c3ccc(F)cc3)nc3occn23)n1 (stereo not shown) [XV] the IC50 was 30.7 nM.
